Laboratory results from PMC4475657 (Iranian Journal of Basic Medical Sciences, 2015).
pIC50: −log10 of the molar value.

Target: human tau protein 1N/4R isoform (htau34) (Homo sapiens, UniProt P10636)
Test: ThT fluorescence aggregation assay of purified tau
Format: biochemical

Chain of human tau protein 1N/4R isoform (htau34) (P10636 1-412 isoform P10636-7): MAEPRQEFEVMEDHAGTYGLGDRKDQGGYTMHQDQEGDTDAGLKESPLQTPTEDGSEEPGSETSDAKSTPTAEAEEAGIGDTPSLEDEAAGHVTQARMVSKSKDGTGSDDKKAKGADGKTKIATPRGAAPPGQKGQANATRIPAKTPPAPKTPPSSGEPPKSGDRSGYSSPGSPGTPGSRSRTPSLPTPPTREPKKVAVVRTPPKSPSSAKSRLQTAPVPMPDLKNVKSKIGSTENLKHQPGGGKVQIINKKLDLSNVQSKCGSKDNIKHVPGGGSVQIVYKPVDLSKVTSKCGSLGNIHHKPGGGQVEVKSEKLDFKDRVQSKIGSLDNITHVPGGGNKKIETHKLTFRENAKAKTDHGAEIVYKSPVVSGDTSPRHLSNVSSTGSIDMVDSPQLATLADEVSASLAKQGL

CC(/C=C/C=C(\C)C(=O)O[C@@H]1O[C@H](CO[C@@H]2O[C@H](CO)[C@@H](O)[C@H](O)[C@H]2O)[C@@H](O)[C@H](O)[C@H]1O)=C\C=C\C=C(C)\C=C\C=C(/C)C(=O)O[C@@H]1O[C@H](CO[C@@H]2O[C@H](CO)[C@@H](O)[C@H](O)[C@H]2O)[C@@H](O)[C@H](O)[C@H]1O [crocin]
pIC50: 3.99
